From ChEMBL document CHEMBL3885881, “DrugMatrix”

Species on record: Rattus norvegicus
Test: DrugMatrix - Regimen: Daily Repeat
Assay type: toxicity, organism-based, Sprague-Dawley
Parameters: regimen Daily Repeat, gender Male, age 6-8 weeks
Settings: in vivo, po, route oral GAVAGE, […]; for ABSOLUTE BASOPHIL / ABSOLUTE EOSINOPHIL / BASOPHIL / EOSINOPHIL / NUCLEATED RED BLOOD CELLS / ABSOLUTE LYMPHOCYTE / ABSOLUTE MONOCYTE / ABSOLUTE SEGMENTED NEUTROPHIL / ERYTHROCYTE COUNT / HEMATOCRIT / HEMOGLOBIN / LEUKOCYTE COUNT / LYMPHOCYTE / MEAN CORPUSCULAR HEMOGLOBIN / MEAN CORPUSCULAR HEMOGLOBIN CONCENTRATION / MEAN CORPUSCULAR VOLUME / MONOCYTE / NEUTROPHIL / PLATELET COUNT: tissue Blood; for ALANINE AMINOTRANSFERASE / ALBUMIN / ALKALINE PHOSPHATASE / ASPARTATE AMINOTRANSFERASE / BLOOD UREA NITROGEN / CARBON DIOXIDE / CHLORIDE / CHOLESTEROL / CREATINE PHOSPHOKINASE / CREATININE / GLUCOSE / LACTATE DEHYDROGENASE / LIPASE / PHOSPHORUS / POTASSIUM / SODIUM / TOTAL BILIRUBIN / TOTAL PROTEIN / URIC ACID: tissue Plasma
[1] = 0 mg/kg, 72 h, dose level Control, time 3 day
[2] = 0 mg/kg, 120 h, dose level Control, time 5 day
[3] = 0.08 mg/kg, 72 h, dose level Low, time 3 day
[4] = 0.08 mg/kg, 120 h, dose level Low, time 5 day
[5] = 12 mg/kg, 72 h, dose level M1, time 3 day

C#C[C@]1(O)CC[C@H]2[C@@H]3CCC4=CC(=O)CC[C@@H]4[C@H]3CC[C@@]21C [NORETHINDRONE]
ABSOLUTE BASOPHIL [1]: 0 CELLS/uL | ABSOLUTE EOSINOPHIL [1]: 14 CELLS/uL | BASOPHIL [1]: 0% | EOSINOPHIL [1]: 0.17% | NUCLEATED RED BLOOD CELLS [1]: 0 /100WBC | ABSOLUTE BASOPHIL [2]: 0 CELLS/uL | BASOPHIL [2]: 0% | ABSOLUTE BASOPHIL [3]: 0 CELLS/uL | ABSOLUTE EOSINOPHIL [3]: 0 CELLS/uL | ABSOLUTE LYMPHOCYTE [3]: 8095 CELLS/uL | ABSOLUTE MONOCYTE [3]: 0 CELLS/uL | ABSOLUTE SEGMENTED NEUTROPHIL [3]: 538.33 CELLS/uL | BASOPHIL [3]: 0% | EOSINOPHIL [3]: 0% | ERYTHROCYTE COUNT [3]: 4.99 x10E6/uL | HEMATOCRIT [3]: 31.97% | HEMOGLOBIN [3]: 12.7 G/DL | LEUKOCYTE COUNT [3]: 8.63 x10E3/uL | LYMPHOCYTE [3]: 94.33% | MEAN CORPUSCULAR HEMOGLOBIN [3]: 25.5 pg | MEAN CORPUSCULAR HEMOGLOBIN CONCENTRATION [3]: 39.77 G/DL | MEAN CORPUSCULAR VOLUME [3]: 64.07 fL | MONOCYTE [3]: 0% | NEUTROPHIL [3]: 5.67% | NUCLEATED RED BLOOD CELLS [3]: 0 /100WBC | PLATELET COUNT [3]: 1042.33 x10E3/uL | ALANINE AMINOTRANSFERASE [3]: 76.33 u/L | ALBUMIN [3]: 4.1 G/DL | ALKALINE PHOSPHATASE [3]: 395.67 u/L | ASPARTATE AMINOTRANSFERASE [3]: 84.33 u/L | BLOOD UREA NITROGEN [3]: 13 mg/dL | CARBON DIOXIDE [3]: 28 mmol/L | CHLORIDE [3]: 101 MEQ/L | CHOLESTEROL [3]: 81 mg/dL | CREATINE PHOSPHOKINASE [3]: 236 u/L | CREATININE [3]: 0.17 mg/dL | GLUCOSE [3]: 185.33 mg/dL | LACTATE DEHYDROGENASE [3]: 127 u/L | LIPASE [3]: 24.67 u/L | PHOSPHORUS [3]: 9.57 mg/dL | POTASSIUM [3]: 5.52 MEQ/L | SODIUM [3]: 144.63 MEQ/L | TOTAL BILIRUBIN [3]: 0.1 mg/dL | TOTAL PROTEIN [3]: 5.67 G/DL | URIC ACID [3]: 0.77 mg/dL | ABSOLUTE BASOPHIL [4]: 0 CELLS/uL | ABSOLUTE EOSINOPHIL [4]: 0 CELLS/uL | ABSOLUTE LYMPHOCYTE [4]: 11824 CELLS/uL | ABSOLUTE MONOCYTE [4]: 160 CELLS/uL | ABSOLUTE SEGMENTED NEUTROPHIL [4]: 1549.33 CELLS/uL | BASOPHIL [4]: 0% | EOSINOPHIL [4]: 0% | ERYTHROCYTE COUNT [4]: 5.24 x10E6/uL | HEMATOCRIT [4]: 32.97% | HEMOGLOBIN [4]: 13 G/DL | LEUKOCYTE COUNT [4]: 13.53 x10E3/uL | LYMPHOCYTE [4]: 87% | MEAN CORPUSCULAR HEMOGLOBIN [4]: 24.87 pg | MEAN CORPUSCULAR HEMOGLOBIN CONCENTRATION [4]: 39.43 G/DL | MEAN CORPUSCULAR VOLUME [4]: 63.07 fL | MONOCYTE [4]: 1% | NEUTROPHIL [4]: 12% | NUCLEATED RED BLOOD CELLS [4]: 0 /100WBC | PLATELET COUNT [4]: 1265.67 x10E3/uL | ALANINE AMINOTRANSFERASE [4]: 76 u/L | ALBUMIN [4]: 4.27 G/DL | ALKALINE PHOSPHATASE [4]: 393 u/L | ASPARTATE AMINOTRANSFERASE [4]: 91.67 u/L | BLOOD UREA NITROGEN [4]: 10.67 mg/dL | CARBON DIOXIDE [4]: 30 mmol/L | CHLORIDE [4]: 98 MEQ/L | CHOLESTEROL [4]: 68 mg/dL | CREATINE PHOSPHOKINASE [4]: 173 u/L | CREATININE [4]: 0.12 mg/dL | GLUCOSE [4]: 150.67 mg/dL | LACTATE DEHYDROGENASE [4]: 80.33 u/L | LIPASE [4]: 33.67 u/L | PHOSPHORUS [4]: 9.53 mg/dL | POTASSIUM [4]: 5.88 MEQ/L | SODIUM [4]: 144.2 MEQ/L | TOTAL BILIRUBIN [4]: 0.1 mg/dL | TOTAL PROTEIN [4]: 5.83 G/DL | URIC ACID [4]: 0.63 mg/dL | ABSOLUTE BASOPHIL [5]: 0 CELLS/uL | ABSOLUTE EOSINOPHIL [5]: 0 CELLS/uL | ABSOLUTE LYMPHOCYTE [5]: 6372.33 CELLS/uL | ABSOLUTE MONOCYTE [5]: 130.67 CELLS/uL | ABSOLUTE SEGMENTED NEUTROPHIL [5]: 463.67 CELLS/uL | BASOPHIL [5]: 0% | EOSINOPHIL [5]: 0% | ERYTHROCYTE COUNT [5]: 5.18 x10E6/uL | HEMATOCRIT [5]: 32.47% | HEMOGLOBIN [5]: 12.27 G/DL | LEUKOCYTE COUNT [5]: 6.97 x10E3/uL | LYMPHOCYTE [5]: 90.33% | MEAN CORPUSCULAR HEMOGLOBIN [5]: 23.7 pg | MEAN CORPUSCULAR HEMOGLOBIN CONCENTRATION [5]: 37.8 G/DL | MEAN CORPUSCULAR VOLUME [5]: 62.77 fL | MONOCYTE [5]: 1.67% | NEUTROPHIL [5]: 8% | NUCLEATED RED BLOOD CELLS [5]: 0 /100WBC | PLATELET COUNT [5]: 1187.33 x10E3/uL | ALANINE AMINOTRANSFERASE [5]: 50 u/L | ALBUMIN [5]: 4.47 G/DL | ALKALINE PHOSPHATASE [5]: 371.33 u/L | ASPARTATE AMINOTRANSFERASE [5]: 87.67 u/L | BLOOD UREA NITROGEN [5]: 11.33 mg/dL | CARBON DIOXIDE [5]: 34 mmol/L | CHLORIDE [5]: 101.67 MEQ/L | CHOLESTEROL [5]: 32.67 mg/dL | CREATINE PHOSPHOKINASE [5]: 431.33 u/L | CREATININE [5]: 0.19 mg/dL | GLUCOSE [5]: 136.67 mg/dL | LACTATE DEHYDROGENASE [5]: 119.33 u/L | LIPASE [5]: 8.67 u/L | PHOSPHORUS [5]: 11.1 mg/dL | POTASSIUM [5]: 5.95 MEQ/L
